# Results as given in patent US7307063B2, “Melanocortin metallopeptides for treatment of sexual dysfunction” (Palatin Technologies, Inc., priority 2001, dated 2007).
# Non-standard residues stand in square brackets, D forms with d. No end group written: not given here. *: point of attachment. Bip = N[C@@H](Cc1ccc(-c2ccccc2)cc1)C(=O)O; 2Nal = N[C@@H](Cc1ccc2ccccc2c1)C(=O)O; Desaminotyrosyl = O=C(CCc1ccc(O)cc1)*; dIgl = N[C@@H](C(=O)O)C1Cc2ccccc2C1; Hydrocinnamoyl = O=C(CCc1ccccc1)*; Tic = O=C(O)[C@@H]1Cc2ccccc2CN1; Ac6c = NC1(C(=O)O)CCCCC1; Nle = CCCC[C@H](N)C(=O)O; Ac5c = NC1(C(=O)O)CCCC1
# How the values were obtained:
# MC1-R = biological target: T1, MC1-R (Mus musculus, UniProt Q01727); assay: Competitive binding assay: inhibition of 125I-NDP-α-MSH binding to membranes from B16-F10 mouse melanoma cells; conditions: Table 6, mean of triplicate
# T1 construct: MC1-R membranes were isolated from B16—F10 mouse melanoma cells; endogenous in cells; host or cells: B16-F10 mouse melanoma cells
# Outline: (§1)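 Rhenium-complexed test peptides at a chosen concentration were assayed for inhibition of 125I-NDP-α-MSH binding to receptor membranes (HEK-293 for cloned human subtypes; B16-F10 cells for MC1-R). Non-specific binding was defined with 1 μM α-MSH, and cpm were normalized to specific binding to give percent inhibition.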
# hMC5-R = biological target: T2, hMC5-R (Homo sapiens, UniProt P33032); assay: Competitive binding assay: inhibition of 125I-NDP-α-MSH binding to HEK-293 membranes with cloned human receptor subtype 5; conditions: Table 6; 1 μM; mean of triplicate
# T2 construct: expressed in transfected cells; host or cells: HEK-293
# Outline: as §1
# MC4-R = biological target: T3, MC4-R (Homo sapiens, UniProt P32245); assay: Competitive binding assay: inhibition of 125I-NDP-α-MSH binding to HEK-293 membranes with cloned human receptor subtype 4; conditions: Table 6, mean of triplicate
# T3 construct: expressed in transfected cells; host or cells: HEK-293
# Outline: as §1
# hMC2-R = biological target: T4, hMC2-R (Homo sapiens, UniProt P41968); assay: Competitive binding assay of additional compounds, Table 6 hMC2-R; conditions: 1 μM, mean of triplicate
# T4 construct: expressed in transfected cells; host or cells: HEK-293
# T4 sequence (P41968 whole entry): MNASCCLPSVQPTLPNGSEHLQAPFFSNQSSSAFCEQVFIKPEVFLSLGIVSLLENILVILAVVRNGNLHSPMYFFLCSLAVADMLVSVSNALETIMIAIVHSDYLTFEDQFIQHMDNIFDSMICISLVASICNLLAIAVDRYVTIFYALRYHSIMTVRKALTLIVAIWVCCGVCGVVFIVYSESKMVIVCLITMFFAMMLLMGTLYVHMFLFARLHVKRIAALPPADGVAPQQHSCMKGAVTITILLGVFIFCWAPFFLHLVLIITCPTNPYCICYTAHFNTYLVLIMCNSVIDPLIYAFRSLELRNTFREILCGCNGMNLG
# T2 sequence (P33032 whole entry): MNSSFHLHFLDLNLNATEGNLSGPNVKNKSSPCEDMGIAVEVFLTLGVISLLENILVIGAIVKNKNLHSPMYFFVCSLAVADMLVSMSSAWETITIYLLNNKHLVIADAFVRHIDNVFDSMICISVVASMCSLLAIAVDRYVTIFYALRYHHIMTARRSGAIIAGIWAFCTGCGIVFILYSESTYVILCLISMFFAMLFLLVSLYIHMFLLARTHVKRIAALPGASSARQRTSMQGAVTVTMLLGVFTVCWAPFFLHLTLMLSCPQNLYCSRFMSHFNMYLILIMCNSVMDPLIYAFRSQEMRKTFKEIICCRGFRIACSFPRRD
# T3 sequence (P32245 whole entry): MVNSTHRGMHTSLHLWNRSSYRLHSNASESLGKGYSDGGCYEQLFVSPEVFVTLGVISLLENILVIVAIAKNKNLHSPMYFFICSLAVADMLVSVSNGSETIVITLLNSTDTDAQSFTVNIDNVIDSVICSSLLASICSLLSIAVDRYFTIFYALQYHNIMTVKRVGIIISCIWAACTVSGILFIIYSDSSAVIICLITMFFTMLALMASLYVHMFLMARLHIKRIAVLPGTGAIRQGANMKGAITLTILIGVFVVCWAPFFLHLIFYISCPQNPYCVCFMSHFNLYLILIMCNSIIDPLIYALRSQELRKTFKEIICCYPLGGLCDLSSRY
# T1 sequence (Q01727 whole entry): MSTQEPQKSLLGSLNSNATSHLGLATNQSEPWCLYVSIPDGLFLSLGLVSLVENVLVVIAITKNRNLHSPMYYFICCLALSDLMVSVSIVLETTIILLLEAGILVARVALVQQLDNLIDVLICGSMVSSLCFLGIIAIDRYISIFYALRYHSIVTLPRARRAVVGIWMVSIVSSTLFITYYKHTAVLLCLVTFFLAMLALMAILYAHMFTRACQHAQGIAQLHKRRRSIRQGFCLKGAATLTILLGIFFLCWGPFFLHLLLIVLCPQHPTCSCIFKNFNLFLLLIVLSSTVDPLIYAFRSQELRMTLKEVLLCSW
% Inhibition of Binding MC1-R (MC1-R; 1 μM),% Inhibition of Binding hMC5-R (hMC5-R),% Inhibition of Binding hMC4-R (MC4-R; 1 μM),% Inhibition of Binding hMC2-R (hMC2-R),% Inhibition of Binding MC1-R (MC1-R; 0.1 μM),% Inhibition of Binding hMC4-R (MC4-R; 0.1 μM),"% Inhibition of Binding hMC2-R (hMC2-R; listed as NH2(CH2)6CO-Ser(Bzl)-D-Phe(4′-Cl)-Arg-Trp-Cys-NH2, 1 µM)",Substance
12%,0%,11%,0%,–,–,–,Idc-D-Phe-Arg-Trp-Cys-NH2
0%,42%,3%,0%,–,–,–,Tic-D-Phe(4′-Cl)-Arg-Cys-NH2
0%,0%,12%,3%,–,–,–,Ac-Nle-Ala-Glu-D-Phe-Arg-Cys-Trp-NH2 (Ac-[Nle]AE[dF]RCW-NH2; not fully specified; printed as Ac-Nle-Ala-Glu-D-Phe-Arg-Cys-Trp-NH2)
11%,16%,1%,0%,–,–,–,1-amino-1-cyclohexane carboxyl-D-Phe-Arg-Trp-Cys-NH2 ([Ac6c][dF]RWC-NH2; N-terminus assumed; SMILES N=C(N)NCCC[C@H](NC(=O)[C@@H](Cc1ccccc1)NC(=O)C1(N)CCCCC1)C(=O)N[C@@H](Cc1c[nH]c2ccccc12)C(=O)N[C@@H](CS)C(N)=O)
8%,32%,10%,0%,–,–,–,7-amino-haptanoyl-D-Igl-D-Phe-Arg-Cys-NH2
39%,0%,14%,0%,–,–,–,Pro-D-Phe-Arg-Trp-Cys-NH2 (P[dF]RWC-NH2; also: metal complex)
56%,92%,68%,46%,–,–,–,3′-Br Phenyl acetyl-Arg-Arg-D-Bip-Cys-Bip-NH2
14%,69%,64%,25%,–,–,–,Tic-D-Phe-Arg-Trp-Cys-NH2 ([Tic][dF]RWC-NH2; also: metal complex)
3%,44%,0%,0%,–,–,–,3′-Phenylpropionyl-D-Phe-Arg-Cys-Trp-NH2 (Hydrocinnamoyl-[dF]RCW-NH2; not fully specified; printed as 3′-Phenylpropionyl-D-Phe-Arg-Cys-Trp-NH2)
78%,60%,16%,0%,–,–,–,1-amino-1-cyclopentane carboxyl-D-Phe-Arg-Cys-Trp-NH2 ([Ac5c][dF]RCW-NH2; N-terminus assumed; SMILES N=C(N)NCCC[C@H](NC(=O)[C@@H](Cc1ccccc1)NC(=O)C1(N)CCCC1)C(=O)N[C@@H](CS)C(=O)N[C@@H](Cc1c[nH]c2ccccc12)C(N)=O)
76%,17%,4%,0%,–,–,–,Ac-Ala-Ala-His-D-Phe-Arg-Cys-Trp-NH2 ({Ac-Ala-Ala-H2N}-[dF]RCW-NH2; not fully specified; printed as Ac-Ala-Ala-His-D-Phe-Arg-Cys-Trp-NH2)
4%,60%,38%,13%,–,–,–,3′-Bromo phenyl acetyl-Lys-Ala-D-Phe(3′-Cl)-Cys-Trp-NH2
9%,38%,18%,4%,–,–,–,Aic-D-Phe-Arg-Trp-Cys-NH2
91%,99%,77%,83%,–,–,–,3′-Br Phenyl acetyl-Arg-Arg-D-Bip-Cys-Trp-NH2
76%,21%,0%,0%,–,–,–,3′-(4′-Hydroxyphenyl)propionyl-HiS-D-Phe-Arg-Cys-Trp-NH2 (Desaminotyrosyl-H[dF]RCW-NH2; not fully specified; printed as 3′-(4′-Hydroxyphenyl)propionyl-HiS-D-Phe-Arg-Cys-Trp-NH2)
5%,21%,17%,0%,–,–,–,3′-Bromo phenyl acetyl-Arg-Trp-D-Phe(4′-Cl)-Cys-NH2
0%,51%,19%,0%,–,–,–,[Bip][dF]RWC-NH2
11%,13%,5%,0%,–,–,–,D-Nal 2′-D-Phe-Arg-Trp-Cys-NH2
34%,20%,12%,9%,–,–,–,Ac-Nle-Ala-Ala-D-Phe-Arg-Cys-Trp-NH2 (Ac-[Nle]AA[dF]RCW-NH2; not fully specified; printed as Ac-Nle-Ala-Ala-D-Phe-Arg-Cys-Trp-NH2)
75%,31%,0%,0%,–,–,–,Ac-Leu-His-D-Phe-Arg-Cys-Trp-NH2 ({Ac-Leu-H2N}-[dF]RCW-NH2; not fully specified; printed as Ac-Leu-His-D-Phe-Arg-Cys-Trp-NH2)
52%,0%,16%,0%,–,–,–,Ac-[Nle]AH[dF]R[dH]C-NH2

# Further lines, the substance ahead of its results:
Substance,% Inhibition of Binding MC1-R (MC1-R; 1 μM),% Inhibition of Binding hMC5-R (hMC5-R),% Inhibition of Binding hMC4-R (MC4-R; 1 μM),% Inhibition of Binding hMC2-R (hMC2-R),% Inhibition of Binding MC1-R (MC1-R; 0.1 μM),% Inhibition of Binding hMC4-R (MC4-R; 0.1 μM),"% Inhibition of Binding hMC2-R (hMC2-R; listed as NH2(CH2)6CO-Ser(Bzl)-D-Phe(4′-Cl)-Arg-Trp-Cys-NH2, 1 µM)"
1-amino-1-cyclohexane carboxyl-D-Phe-Arg-Cys-Trp-NH2 ([Ac6c][dF]RCW-NH2; N-terminus assumed; SMILES N=C(N)NCCC[C@H](NC(=O)[C@@H](Cc1ccccc1)NC(=O)C1(N)CCCCC1)C(=O)N[C@@H](CS)C(=O)N[C@@H](Cc1c[nH]c2ccccc12)C(N)=O),92%,65%,14%,0%,–,–,–
Pro-D-Phe-Arg-Cys-Trp-NH2 (P[dF]RCW-NH2; also: metal complex),27%,33%,2%,0%,–,–,–
Nal 2′-D-Phe-Arg-Cys-Trp-NH2 ([2Nal][dF]RCW-NH2; also: metal complex),39%,63%,21%,13%,–,–,–
Ac-[Nle]AY[dF]RCW-NH2,66%,44%,0%,0%,–,–,–
3′-Br Phenyl acetyl-Lys-Ala-D-Phe(2′-Cl)-Cys-Trp-NH2,9%,44%,34%,19%,–,–,–
3′-Bromo phenyl acetyl-Arg-Thr(Bzl)-D-Phe(4′-Cl)-Cys-NH2,16%,21%,6%,5%,–,–,–
D-Nal 1′-D-Phe-Arg-Cys-Trp-NH2,22%,48%,8%,0%,–,–,–
[dIgl][dF]RWC-NH2,2%,63%,8%,0%,–,–,–
3′-Br Phenyl acetyl-Arg-Arg-D-Phe(4′-Cl)-Cys-Bip-NH2,69%,86%,78%,60%,–,–,–
NH2-(CH2)6-CO-Ser(Bzl)-D-Phe(4′-Cl)-Arg-Trp-Cys-NH2,74%,100%,94%,90%,28%,68%,87%
Ac-Nle-Ala-His-D-Phe-Arg-His-Cys-NH2 ({Ac-Nle-Ala-H2N}-[dF]RHC-NH2; not fully specified; printed as Ac-Nle-Ala-His-D-Phe-Arg-His-Cys-NH2),58%,0%,1%,0%,–,–,–
Tic-D-Phe(4′-Cl)-Lys-Cys-NH2,16%,84%,6%,0%,–,–,–
3′-Br Phenyl acetyl-Arg-Arg-D-Phe(4′-CF3)-Cys-Trp-NH2,72%,99%,89%,94%,–,–,–
3′-Bromo phenyl acetyl-Arg-Ala-D-Phe(4′-Cl)-Cys-NH2,90%,15%,59%,47%,–,–,–
